13 compounds from PubChem BioAssay (NCI) can be followed below.

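96-well plates; 48 h exposure; 5 concentrations. Endpoints by linear interpolation between flanking doses. Not reached: highest tested concentration assigned. The concentration for full growth arrest is given as TGI.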

Test in all cases: NCI anticancer screen, dose series, 48 h
In test [1] the test system is A498 renal.
The subject of test [2] is CAKI-1 renal.
The test system of test [3] is HOP-92 NSCLC.
Test [4] relates to NCI-H522 lung.
Test [5] has as its system PC-3 prostate.
Test [6] has as its system SNB-19 CNS.
For test [7], the system named is SNB-75 CNS.
Test [8] has as its system UO-31 renal.

On to `O=C1c2c(F)c(F)c(F)c(F)c2SC2=Nc3cccc4cccc(c34)N12`, for which the TGI amounted to 35.2 µM in test [1]; 29 µM in test [2]; 6.7 µM in test [3]; 9.01 µM in test [4]; 17.2 µM in test [5]; 21.1 µM in test [6]. For the same compound, the TGI in test [7] amounted to 25.5 µM; in test [8] it was 21.7 µM.
Turning to `C=C(C)[C@@H]1CCC2=C(CC[C@]3(C)[C@@H]([C@@H](CCC=C(C)C)C(=O)O)[C@H](O)C[C@@]23C)[C@@]1(C)CCC(=O)O`, the TGI in test [1], in test [2], in test [3], in test [4], in test [5] and in test [6] was more than 100 µM in each case. Moreover, the TGI in test [7] and in test [8] was more than 100 µM throughout.
As for `COc1cc(C2c3cc4c(cc3OC(NNc3ccccc3)C2C)OCO4)cc(OC)c1O` (centres undefined), the TGI in test [1] was 16.3 µM; in test [2] it was more than 92 µM; in test [3], 24.5 µM; in test [4] it was 12.1 µM; in test [5] it was 14.9 µM; in test [6], 32.5 µM. Besides, the results for the TGI in test [7] and in test [8] were 7.56 µM and 13.3 µM, respectively.
For the compound `CCOC(=O)c1cc([N+](=O)[O-])cc([N+](=O)[O-])c1Sc1ncnc2nc[nH]c12`, the TGI in test [1] is 25.3 µM; in test [2], 6.59 µM; in test [3], 2.52 µM; in test [4], 4.39 µM; in test [5], 9.57 µM; in test [6], 43 µM. The TGI in test [7] stood at 25.1 µM; in test [8], 3.55 µM.
Regarding `CN(C)CCCN=c1c2ccccc2n(C)c2[nH]c(=O)n(C)c(=O)c12`, the TGI in test [1] is 38 µM; in test [2], more than 100 µM; in test [3], more than 84.7 µM; in test [4], 9.34 µM; in test [5] it was 22.4 µM; in test [6], more than 64.4 µM. For the same compound, the values for the TGI in test [7] and in test [8] were 21.5 µM and 27.2 µM, respectively.
`CCOC(=O)CCC(C(=O)OCC)n1nnc2ccc(Nc3c(C)[n+]([O-])c4cc(F)c(OCC)cc4[n+]3[O-])cc21` (centres undefined): the TGI in test [1], in test [2], in test [3], in test [4], in test [5] and in test [6] was more than 100 µM each time. The TGI in test [7] and in test [8] was more than 100 µM throughout.
On to `CON(C(=O)OC(C)(C)C)c1ccccc1`, for which the TGI in test [1], in test [2], in test [3], in test [4], in test [5] and in test [6] was more than 100 µM throughout. In addition, the TGI in test [7] and in test [8] was more than 100 µM throughout.
Consider `N#Cc1c(O)c(C=O)c(=O)n2c1[nH]c1ccccc12`, for which the TGI in test [1], in test [2], in test [3], in test [4], in test [5] and in test [6] was more than 100 µM in each case. Moreover, the TGI in test [7] and in test [8] was more than 100 µM in each case.
Consider `Cc1cc2nc(CC(C(F)(F)F)C(F)(F)F)oc2cc1C`, for which the TGI worked out at 26.3 µM in test [1]; 5.13 µM in test [2]; 28.9 µM in test [3]; 1.13 µM in test [4]; 5.43 µM in test [5]; 17.5 µM in test [6]. For the same compound, the results for the TGI in test [7] and in test [8] were 16.3 µM and 26.2 µM, respectively.
Regarding `COC(=O)[C@@H](NC(=O)c1ccc(CNC(=O)/C(C)=C/c2ccccc2)cc1)C(C)C`, the TGI in test [1], in test [2], in test [3], in test [4], in test [5] and in test [6] was more than 100 µM in each case. Moreover, the TGI in test [7] and in test [8] was more than 100 µM each time.
Turning to `O=[N+]([O-])c1ccc2c(N=Nc3ccc4ccccc4c3O)c(O)cc(S(=O)(=O)O)c2c1`, the TGI in test [1] was more than 100 µM; in test [2], more than 80.6 µM; in test [3], more than 100 µM; in test [4], more than 57.3 µM; in test [5], more than 100 µM; in test [6], more than 83.2 µM. The TGI in test [7] is more than 93.6 µM; in test [8], 47.4 µM.
As to `O=C1C=CC(=O)[C@H]2C3C=CC(C4C3C3(Cl)C(Cl)=C(Cl)[C@]4(Cl)C3(Cl)Cl)[C@@H]12` (some centres undefined), the TGI in test [1] was determined as 31.7 µM; in test [2], 30.2 µM; in test [3] it was 7.69 µM; in test [4], 23.1 µM; in test [5] it was 16.4 µM; in test [6] it was 17 µM. In addition, the results for the TGI in test [7] and in test [8] were 25 µM and 22.1 µM, respectively.
For `NCCN(CCN)/[N+]([O-])=N/O`, the TGI in test [1], in test [2], in test [3], in test [4], in test [5] and in test [6] was more than 100 µM throughout. Moreover, the TGI in test [7] and in test [8] was more than 100 µM each time.
